Results reported in PubChem BioAssay AID1919016 (Molecular Pharmacology Branch, DTP, NCI, 2023).

System: NCI-H196 complex spheroid growth, percent test/control
Experiment: Anticancer human tumor NCI-H196 cell line growth inhibition [AhR];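 note: seven days of drug exposure starting three days after plating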;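 for viability, T/C: 100% = DMSO vehicle control wells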
Conditions: for IC50: curve of first compound; for viability, T/C: stronger effect = lower value; active = viability on the fitted dose curve at most 10% of control; inactive = the rest
In short: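 Complex tumor spheroids co-cultured with HUVEC and human MSC stroma; AhR antagonists tested in combination with standard-of-care and investigational agents. Top concentration at or near clinical Cmax (else 10 microM), half-log dilutions; growth expressed as percent test/control.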

CC(C)c1c(-c2ccccc2)nc2c(C#N)c[nH]n2c1=O + Cc1cncc(-c2nc(NCCc3c[nH]c4ccccc34)c3ncn(C(C)C)c3n2)c1
> 10 µM: IC50 (second compound 0.1 µM) | IC50 (second compound 0.316 µM) | IC50 (second compound 1 µM) | IC50 (second compound 3.16 µM) | IC50 (second compound 10 µM)
inactive: viability, T/C (second compound 0.1 µM, first compound 0.0316 µM) 107% | viability, T/C (second compound 0.1 µM, first compound 0.1 µM) 110% | viability, T/C (second compound 0.1 µM, first compound 0.316 µM) 105% | viability, T/C (second compound 0.1 µM, first compound 1 µM) 100% | viability, T/C (second compound 0.1 µM, first compound 3.16 µM) 117% | viability, T/C (second compound 0.1 µM, first compound 10 µM) 106% | viability, T/C (second compound 0.316 µM, first compound 0.0316 µM) 103% | viability, T/C (second compound 0.316 µM, first compound 0.1 µM) 120% | viability, T/C (second compound 0.316 µM, first compound 0.316 µM) 113% | viability, T/C (second compound 0.316 µM, first compound 1 µM) 109% | viability, T/C (second compound 0.316 µM, first compound 3.16 µM) 113% | viability, T/C (second compound 0.316 µM, first compound 10 µM) 107% | viability, T/C (second compound 1 µM, first compound 0.0316 µM) 120% | viability, T/C (second compound 1 µM, first compound 0.1 µM) 112% | viability, T/C (second compound 1 µM, first compound 0.316 µM) 115% | viability, T/C (second compound 1 µM, first compound 1 µM) 103% | viability, T/C (second compound 1 µM, first compound 3.16 µM) 112% | viability, T/C (second compound 1 µM, first compound 10 µM) 101% | viability, T/C (second compound 3.16 µM, first compound 0.0316 µM) 116% | viability, T/C (second compound 3.16 µM, first compound 0.1 µM) 117% | viability, T/C (second compound 3.16 µM, first compound 0.316 µM) 119% | viability, T/C (second compound 3.16 µM, first compound 1 µM) 102% | viability, T/C (second compound 3.16 µM, first compound 3.16 µM) 115% | viability, T/C (second compound 3.16 µM, first compound 10 µM) 112% | viability, T/C (second compound 10 µM, first compound 0.0316 µM) 75.9% | viability, T/C (second compound 10 µM, first compound 0.1 µM) 86.7% | viability, T/C (second compound 10 µM, first compound 0.316 µM) 89.5% | viability, T/C (second compound 10 µM, first compound 1 µM) 86.9% | viability, T/C (second compound 10 µM, first compound 3.16 µM) 80.7% | viability, T/C (second compound 10 µM, first compound 10 µM) 80.7%
